In US6753176B2, “Aggrecan degrading metallo proteases” (Bristol-Myers Squibb Company, priority 1997, dated 2004):
“Also recorded” adds a separate entry of the source.

Columns and labels:
ADMP = ADMP (aggrecanase) activity: cleavage of purified bovine aggrecan monomers at Glu373-Ala374, BC-3 neoepitope antibody Western; type: biochemical
Experimental: ADMPs were detected at this point by their ability to cleave purified bovine aggrecan monomers isolated from bovine nasal cartilage by the following procedure: Aggrecan was extracted from the cartilage by stirring at 4° C. for 48 hours in 10 volumes of 4M guanidine-HCl in 0.05 M sodium acetate, pH 5.8, containing the protease inhibitors, 0.01M EDTA (EDTA is ethylenediaminetetraacetic acid), 0.1M 6-aminohexanoic acid, 2 mM PMSF and 0.05M benzamidine HCl. Aggrecan monomers were isolated by equilibrium density gradient centrifugation in cesium chloride [Hascall, V. C. and Sajdera, S. W. (1969) J. Biol. Chem. 244, 2384-2396.] and the bottom of this gradient (d>1.54 g/ml) containing the aggrecan monomers, was dialyzed at 4° C. against water and lyophilized.
These aggrecan monomers (500 nM) were incubated at 37° C. for at least 4 hr with ADMPs eluted from the Macro S support column in a final volume of 200 ul in Buffer B (Buffer B contains 50 mM Tris, pH 7.6, containing 0.1 M NaCl and 10 mM CaCl2), quenched with 20 mM EDTA and analyzed for aggrecan fragments produced exclusively by cleavage at the Glu^373-Ala^374 bond within the aggrecan core protein using the monoclonal antibody, BC-3 (Hughes, C. E., et al., Biochem. J. 306:799-804, 1995). This antibody recognizes aggrecan fragments with the N-terminal sequence A^374RGSVIL . . . , generated upon cleavage by ADMPs. The BC-3 antibody recognizes this neoepitope only when it is the N-terminus and not when it is present internally within aggrecan fragments or within the intact aggrecan core protein. […]
After digestion, the samples were precipitated with 5 volumes of acetone and reconstituted in an appropriate volume of SDS-PAGE sample buffer, loaded on 4-12% gradient gels and then separated by SDS-PAGE under non reducing conditions, transferred overnight to nitrocellulose and immunolocated with 1:1000 dilution of the monoclonal antibody BC-3. […] BC-3-reactive aggrecan fragments were then quantified by scanning densitometry.

[1] = system: matrix metalloproteinases; assay: Inhibition of matrix metalloproteinases; type: biochemical
ADMP-1 = biological target: T1, ADMP-1 (Bos taurus, UniProt Q9TT93); assay: Binding of 67 kDa ADMP-1 doublet to aggrecanase-inhibitor hydroxamate affinity resin in the presence of inhibitor; set-up: species or system bovine
T1 construct: from tissue; host or cells: conditioned medium of IL-1-stimulated bovine nasal cartilage, purified over Macro S, gelatin-agarose and TIMP-1/protein A
T1 sequence (Q9TT93 213-839): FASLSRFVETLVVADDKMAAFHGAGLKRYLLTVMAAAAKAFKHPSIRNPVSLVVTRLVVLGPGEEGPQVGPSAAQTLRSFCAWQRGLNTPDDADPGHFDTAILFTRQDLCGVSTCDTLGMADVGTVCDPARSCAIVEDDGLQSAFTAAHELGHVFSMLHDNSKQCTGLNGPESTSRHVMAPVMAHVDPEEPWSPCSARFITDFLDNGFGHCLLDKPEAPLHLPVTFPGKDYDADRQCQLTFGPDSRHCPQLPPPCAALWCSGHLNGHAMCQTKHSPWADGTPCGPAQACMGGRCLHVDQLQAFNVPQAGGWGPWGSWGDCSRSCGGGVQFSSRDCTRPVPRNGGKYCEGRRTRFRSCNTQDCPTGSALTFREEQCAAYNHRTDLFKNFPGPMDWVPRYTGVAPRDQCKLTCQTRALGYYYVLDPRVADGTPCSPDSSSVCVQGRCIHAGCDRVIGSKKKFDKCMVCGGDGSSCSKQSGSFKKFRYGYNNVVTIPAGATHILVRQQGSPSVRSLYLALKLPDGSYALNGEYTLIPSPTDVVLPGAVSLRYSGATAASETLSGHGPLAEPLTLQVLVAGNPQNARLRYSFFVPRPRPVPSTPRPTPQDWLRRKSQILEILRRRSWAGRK
Excerpt: An ADMP-inhibitor hydroxamate affinity resin was produced in the following manner. POROS 20-NH perfusive chromatographic media (Perseptive Biosystems), a highly crosslinked poly(styrene divinylbenzene) polymer, was mixed overnight with four equivalents of Fmoc-beta-alanine, four equivalents HBTU (O-Benzotriazole-N,N,N′,N′-tetramethyl-uronium hexafluorophosphate), and eight equivalents DIEA (N,N diisopropylethylamine) in DMF (dimethylformamide). The resin was rinsed several times with DMF, then the FMOC group was removed with 20% piperidine/DMF. This coupling/deprotecting scheme was repeated three more times, resulting in four beta-alanine residues coupled to the resin. After the final piperidine deprotection, 1.5 equivalents of a t-butyl protected hydroxamic acid capable of inhibiting ADMP activity was coupled with 1.5 equivalents HBTU and 3 equivalents DIEA in DMF. After rinsing with DMF and CH2Cl2, the t-butyl group was removed by mixing overnight with TFA (trifluoroacetic acid), leaving the hydroxamic acid. The resin was thoroughly rinsed with CH2Cl2 and dried under vacuum.
The eluate from the protein A column was neutralized with 1 M Tris base to pH 7.5 and then incubated for 2 hours with the aggrecanase-inhibitor hydroxamate resin at a ratio of 1 mg resin for every 1 ml of eluate. […]

binding of 67 kDa ADMP-1 to the affinity resin (ADMP-1; compound present during affinity purification) | binding of 67 kDa ADMP-1 doublet to aggrecanase-inhibitor hydroxamate resin (ADMP-1; 10 uM compound included during affinity purification) | Compound | inhibition of ADMP activity (ADMP) | inhibition of matrix metalloproteinases [1]
not affected |  | CNC(=O)[C@H]1CCCNN1C(=O)[C@@H](CC(C)C)[C@@H](C)C(=O)NO [Compound A, N3-methyl-(3R)-2-[(2S)-2-[(1R)-2-(hydroxyamino)-1-methyl-2-oxoethyl]-4-methylpentanoyl]hexahydro-3-pyridazinecarboxamide] | ineffective; also recorded: inactive | broad spectrum inhibitor; also recorded: potent inhibitor
 | blocked | CNC(=O)[C@@H]1CCCCNC(=O)CC[C@H](C(=O)NO)[C@H](CC(C)C)C(=O)N1 [Compound B, (2S,11S, 12S)-12-isobutyl-2-[(methylamino)carbonyl]-11[(hydroxylamino)carbonyl]-8,13-dioxo-1,7-diazacyclotridecane] | potent ADMP inhibitor | 
 |  | tissue inhibitor of metalloproteinases-1 [TIMP-1] | inhibited | 
